In patent US20250163013A1, “TREATMENT OF GENITOURINARY SYNDROME OF MENOPAUSE” (THE REGENTS OF THE UNIVERSITY OF COLORADO, a body corporate, priority 2022, published 2025):
“Also recorded” adds a separate entry of the source.

Key:
[1] = test system: Estrogen Response Element (ERE)-luciferase reporter gene; assay: Cell culture-reporter gene assay of estrogenic activity (T47D ERE-luciferase); format: cell-based; conditions: for estrogenic activity (luciferase) in words: compared to estradiol 1 nM; for EC50: Homo sapiens, T47D breast cancer cell line, ERE-luciferase, treated 20 hours, FIG. 4
Description: Estrogenic activity was compared to an optimal dose of estradiol (1 nM). Results from cell culture-reporter gene assay was performed in which a T47D breast cancer cell line with a stably integrated Estrogen Response Element (ERE)-luciferase reporter gene was treated for 20 hours with the indicated doses of test compounds (FIG. 4). Luciferase activity was compared to an optimal dose of estradiol (1 nM).

[2] = test system: ovariectomized rat; assay: Thickness of uterine endometrium, myometrium and bladder urothelium, ovariectomized rat; format: in vivo; conditions: estradiol 0.1 microgram/suppository daily for 14 days
Description: (§1) Compound 4 of Table 1 was tested in the ovariectomized rat, a model of GSM, (Yousefzadeh N, et al., Ovariectomized rat model of osteoporosis: a practical guide. EXCLI J. 2020 Jan. 10; 19:89-107. doi: 10.17179/excli2019-1990). […] To determine the depth of the epithelium, high quality 100x images were taken of the two regions and thickness of the epithelium measured at 25 distinct sites at each level for each animal, then averaged. […] P values were determined by student's T-test. […]
To ascertain whether compound 4 has an effect on the epithelium of anatomically neighboring tissues, the thickness of the epithelium was assessed in the uterus (a known target tissue of physiological levels of estradiol) and bladder (not an estrogen target tissue). The rats from the five treatment groups in the ovariectomized rat model of GSM described in Example 2 were evaluated for the effects of compound 4 on growth of uterus and bladder. […] The endometrium, myometrium, and urothelium thickness of each animal (n=6) were measured in 20 locations and averaged. […] P values were determined by student T-test.

[3] = test system: ovariectomized rat; assay: Ki67 immunohistochemistry of uterine sections, ovariectomized rat; format: in vivo; conditions: estradiol 0.1 microgram/suppository daily for 14 days
Description: as §1
Ki67 IHC was performed on a uterine section from animals in the control, the high level of compound 4 (abbreviated as “3F” in these figures), and estradiol groups. […] Approximately 800 cells were assessed for each animal within a group, then averaged to obtain the group mean. […] P values were determined by student T-test.

[4] = test system: estrogen receptor; assay: Screen for agonist or antagonist effects on steroid hormone receptor-mediated gene expression; format: cell-based; conditions: cell lines with endogenous genes or stably integrated reporter genes
Description: A screen for the agonist or antagonist effects of a set of commercially available flavonoids was done by assessing their ability to induce or inhibit steroid hormone receptor-mediated gene expression. Cell lines were used in which the activity of endogenous genes or stably integrated reporter genes provided a facile method to quantify the effect of the flavonoids. The compound library was tested for their effects on gene expression mediated by the estrogen receptor, androgen receptor, progesterone receptor, and glucocorticoid receptor. […] Compound 2 differs from compound 1 by the addition of a hydroxyl group at carbon 3 of the flavone scaffold. We reasoned that other substitutions at position 3 could have estrogenic activity. Two novel compounds were tested: compound 3 (6-hydroxy-2-(4-hydroxyphenyl)-3-methyl-4H-chromen-4-one) and compound 4 (3-fluoro-6-hydroxy-2-(4-hydroxyphenyl)-4H-chromen-4-one) of Table 1, which have a methyl or fluoro moiety, respectively, at position 3.

[5] = test system: ovariectomized rat; assay: Depth of vaginal epithelium in ovariectomized rat model of GSM; format: in vivo
Description: Independent measurement from mid-vagina (sections 3-4) and vagina near the cervix (sections 6-7) are shown. Twenty-five separate measurements were performed on sections 3-4 and also on sections 6-7 for each animal. There were 6 animals per treatment group, therefore each bar represents the mean of 150 measurements with the vertical line indicating one standard deviation.
as §1

[6] = test system: ovariectomized rat; assay: Ki67 immunohistochemistry of vaginal sections, ovariectomized rat; format: in vivo; conditions: high compound 4, 1.0 mg/suppository daily for 14 days
Description: Compound 4 of Table 1 was tested in the ovariectomized rat, a model of GSM, (Yousefzadeh N, et al., Ovariectomized rat model of osteoporosis: a practical guide. EXCLI J. 2020 Jan. 10; 19:89-107. doi: 10.17179/excli2019-1990). Six rats were tested in each of five treatment groups: rats treated with low or high concentrations of control (vehicle only); rats treated with low (0.2 mg/suppository or high (1.0 mg/suppository levels of compound 4 (abbreviated as “3F” in these figures); and rats treated with estradiol 0.1 microgram/suppository. Suppositories were administered intravaginally daily for 14 days. There were two sets of vehicle controls, corresponding to the level of excipients used in the in the low and high compound 4 treatment conditions. The estradiol treatment condition had excipients equivalent to the high control and high compound 4 treatment conditions. […] To determine the depth of the epithelium, high quality 100x images were taken of the two regions and thickness of the epithelium measured at 25 distinct sites at each level for each animal, then averaged. […] P values were determined by student's T-test. […]
Ki-67 is a protein expressed in G1, S, G2, and M phase and has been established as a marker of cellular proliferation. […] Approximately 800 cells were assessed on each slide. […] P values were determined by student's T-test.

[7] = test system: ovariectomized rat; assay: Vaginal mucin 5B immunohistochemistry, semi-quantitative score, ovariectomized rat; format: in vivo; conditions: intravaginal suppository daily for 14 days
Description: as §1
To investigate compound 4-mediated production of mucins in more detail, we investigated the production and presence of mucin 5B in the rat vagina. […] A semi-quantitative scoring system for the mucin 5B immunohistochemistry was designed with values between 0 to 2 in increments of 0.5 for the quantity of mucin 5B and the depth of the epithelium positive for mucin 5B, and then assessed at the levels 1, 2&3, 4&5, and 6&7. The presence of mucin 5B in the vaginal lumen was also assessed, then all values were summed for each animal. […] P values were determined by student's T-tests.

[8] = test system: ovariectomized rat; assay: Behavior, appearance, weight and necropsy findings of treated rats; format: in vivo; conditions: intravaginal suppository daily for 14 days
Description: (§2) Compound 4 of Table 1 was tested in the ovariectomized rat, a model of GSM, (Yousefzadeh N, et al., Ovariectomized rat model of osteoporosis: a practical guide. EXCLI J. 2020 Jan. 10; 19:89-107. doi: 10.17179/excli2019-1990). Six rats were tested in each of five treatment groups: rats treated with low or high concentrations of control (vehicle only); rats treated with low (0.2 mg/suppository or high (1.0 mg/suppository levels of compound 4 (abbreviated as “3F” in these figures); and rats treated with estradiol 0.1 microgram/suppository. Suppositories were administered intravaginally daily for 14 days. There were two sets of vehicle controls, corresponding to the level of excipients used in the in the low and high compound 4 treatment conditions. The estradiol treatment condition had excipients equivalent to the high control and high compound 4 treatment conditions. The individuals performing the drug treatment of the animals, their gross evaluations, sacrifice and dissection were blinded to the treatment that each group received. […] J Steroid Biochem Mol Biol. 2008 March; 109(1-2):67-80 doi: 10.1016/j.jsbmb.2007.09.023). […] To determine the depth of the epithelium, high quality 100x images were taken of the two regions and thickness of the epithelium measured at 25 distinct sites at each level for each animal, then averaged. […] P values were determined by student's T-test. […]

[9] = Level in systemic circulation after suppository regimen; format: in vivo; conditions: female, rat, other: intravaginal suppository, one day after a two-week, daily suppository administration regimen, read-out: level in the systemic circulation (undetectable, LOD)
Description: as §2

Cc1c(-c2ccc(O)cc2)oc2ccc(O)cc2c1=O [compound 3, 6-hydroxy-2-(4-hydroxyphenyl)-3-methyl-4H-chromen-4-one]
potency compared to compound 2 (fold less potent) ([1]; T47D ERE-luciferase, 20 hours): about 10 fold | estrogenic activity (luciferase) in words ([1]; T47D ERE-luciferase, 20 hours): at very high doses appears to have superagonist activity

C[C@]12CC[C@@H]3c4ccc(O)cc4CC[C@H]3[C@@H]1CC[C@@H]2O [estradiol]
endometrium, myometrium, and urothelium thickness vs control [2]: None of the pairs exhibited a significant difference | mean percent Ki67 positive uterine cells vs control [3]: None of the pairs exhibited a significant difference

O=c1c(O)c(-c2ccc(O)cc2)oc2ccc(O)cc12 [compound 2, 3,6-dihydroxy-2-(4-hydroxyphenyl)-4H-chromen-4-one]
estrogen agonist effect on estrogen receptor-mediated gene expression [4]: superior potency as an estrogen receptor agonist compared to compound 1 | EC50 [1]: 44 nM

O=c1c(F)c(-c2ccc(O)cc2)oc2ccc(O)cc12 [compound 4, 3-fluoro-6-hydroxy-2-(4-hydroxyphenyl)-4H-chromen-4-one]
EC50 [1]: 24 nM | estrogenic activity (luciferase) in words ([1]; T47D ERE-luciferase, 20 hours): robust estrogenic activity and superior potency compared to compound 2 | effect on vaginal epithelium structure, in words ([5]; 0.2 and 1.0 mg/suppository intravaginally daily for 14 days): dose dependent; also recorded: can restore the structure of the degenerate vaginal epithelium to the same level as estradiol | mean epithelial depth, p value vs corresponding control ([5]; low compound 4, 0.2 mg/suppository intravaginally daily for 14 days, both regions, borderline significant): ≈ 0.05 | percent Ki67 positive cells in vaginal basal and parabasal layers vs control [6]: no statistical difference between the groups | vaginal production of mucins, in words [7]: stimulates the vaginal production of mucins; also recorded: lower dose of compound 4 treatment results in somewhat higher mucin production than higher dose | effect on animal behavior, appearance, weight, necropsy findings [8]: does not affect animal behavior, appearance, weight, or necropsy findings | concentration at 1 day [9]: < 0.33 ng/mL

O=c1cc(-c2ccc(O)cc2)oc2ccc(O)cc12 [compound 1, 6-hydroxy-2-(4-hydroxyphenyl)-4H-chromen-4-one]
estrogen agonist effect on estrogen receptor-mediated gene expression [4]: estrogen agonist
